The results in this text go back to PubChem BioAssay AID504672 (Sanford-Burnham Center for Chemical Genomics, 2011).

Activity calls are given as the source filed them. Rule as the data show it: active = IC50 below about 71 µM; inactive = the rest.

The experiment relates to S. cerevisiae tim10 strain, luminescence counterscreen. Briefly: signal inhibition in TIM10 yeast counter-screen, dose response, counter-screen for tim23-1 inhibitor project, luminescence, S. cerevisiae, uHTS hits (AID 504672).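 Also: yeast grew roughly 22 hours at 25 °C before the luminescence read.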
In the case of `Cc1ccc(CS(=O)(=O)c2ncc(Cl)c(C(=O)Nc3ccc(OC(F)F)cc3)n2)cc1`, the IC50 is 5.88 µM. With `O=C(CSc1cccc[n+]1[O-])Nc1ccccc1Oc1ccccc1` the figure was 17.7 µM; with `COc1ccc(NC(=O)C#Cc2ccccc2)cc1`, 6.8 µM. The value for `CC1c2[nH]c3ccccc3c2CCN1C(=O)Nc1ccccc1` (configuration not stated) was 14 µM; that for `C=CCNC(=O)c1ccc2c3n(nc2c1)-c1ccc(Cl)cc1CO3` was 8.34 µM; that for `O=C(N/N=C/c1ccc(Br)s1)c1c[nH]c2ccccc12` was 13.1 µM. The value for `O=C(CSc1cccc[n+]1[O-])CSc1cccc[n+]1[O-]` was 6.94 µM; that for `N=c1c2c(-c3ccccc3)c(-c3ccccc3)n(Cc3ccco3)c2ncn1Cc1ccco1` was 14.6 µM; that for `Cc1cccc(N2C(=O)c3ccc(Br)cc3C2=O)n1` was 7.58 µM. Regarding `c1ccc(N=Nc2cn[nH]c2-c2ccco2)cc1`, the IC50 is 20.8 µM. As for `C/C(=N\Nc1nc2ccccc2s1)c1cccs1`, the IC50 was 17 µM. The value for `O=C(Nc1nccs1)c1ccc(Cl)s1` was 13.3 µM. With `Cc1ccc2oc(C(Cl)(Cl)Cl)cc(=O)c2c1` the figure was 8.7 µM; with `COc1cccc2c1C(=O)C=C(C)C2=O`, 13.2 µM. With `Nc1ccc(/C=C/C(=O)c2cccs2)cc1` the figure was 3.17 µM; with `Cc1ccc(Nc2nc(Cl)c(C=O)s2)cc1Cl`, 3.45 µM; with `COc1ccc(C(C[N+](=O)[O-])c2c(-c3ccccc3)cc3ccccn23)cc1` (configuration not stated), 9.28 µM. For the molecule `O=C(CCl)Nc1cccc(-c2cnc3ccccc3n2)c1`, the IC50 is 14.6 µM. The value for `c1ccc(-c2ncc(-c3ccn[nH]3)s2)cc1` was 3.88 µM. The value for `CCc1ccc(NC(=O)/C(C#N)=C/c2ccncc2)cc1` was 12.6 µM. Take `Cc1[nH][nH]c(=O)c1C(c1ccc(-c2ccc(F)cc2)o1)c1c(C)[nH][nH]c1=O`: the IC50 was 16.3 µM.

`N#Cc1c(-c2ccccc2)cc(-c2ccc(O)cc2)nc1N`: the IC50 is 9.91 µM. The value for `COc1ccc(C(=O)N/N=C\c2coc3ccc(Cl)cc3c2=O)cc1` was 32.5 µM; that for `O=C(Nc1ccc(OC(F)(F)F)cc1)N1CCN(c2ccnc3cc(Cl)ccc23)CC1` was 10.2 µM.

`O=C(N/N=C/c1ccc([N+](=O)[O-])s1)c1ccncc1`: the IC50 was 12.7 µM. On to `COCCn1c(C)cc(C(=O)COC(=O)c2ccc([N+](=O)[O-])o2)c1C`, for which the IC50 is 8.28 µM. With `CN=c1scc(-c2cccs2)n1/N=C/c1ccc(O)c(O)c1O` the figure was 11 µM; with `O=C(Nc1ccc(-c2cn3ccccc3n2)cc1)c1cccs1`, > 100 µM (inactive); with `NNC(=O)c1nc(-c2ccccc2)cc(-c2ccccc2)n1`, 12.5 µM.

Consider `Cc1ccc2nc(NC(=O)Cn3nc(C)c([N+](=O)[O-])c3C)sc2c1`, for which the IC50 is 18.2 µM. The value for `CCOC(=O)c1cccnc1SCc1cc(=O)n2ccccc2n1` was > 100 µM (inactive); that for `CSC1=N/C(=C\c2ccc(C)cc2)C(=O)S1` was 23.8 µM. Regarding `COc1ccc(NCc2ccc([N+](=O)[O-])s2)cc1`, the IC50 was 6.42 µM.

Take `COc1ccc(N2CCC(CNC(=S)Nc3ccc(C)cc3C)C2)cc1` (configuration not stated): the IC50 was 18.1 µM. With `O=C1NN=C(c2ccc(Br)cc2)CC1c1ccc(Cl)cc1` (configuration not stated) the figure was 23.2 µM; with `CC1(C)CC(=O)C=C(c2cccc(Cl)c2O)C1`, 13.1 µM; with `COc1cccc(Nc2nc(-c3ccccc3)nc3ccccc23)c1`, 7.48 µM.

As to `COc1ccc(C(=O)COC(=O)c2cncc(Br)c2)cc1`, the IC50 was 15.5 µM. With `COc1cc(/C=N/NC(=O)c2ccc(N)cc2)ccc1OC(=O)c1cccc(C)c1` the figure was 7.44 µM; with `O=C(N/N=C/C(Cl)=C\c1ccccc1)c1cccs1`, 59.1 µM.

Consider `O=C(Nc1cccc(Br)c1)C1CCCC1`, for which the IC50 is 14.1 µM. With `COc1ccccc1C(=O)Nc1nnc(-c2ccc3c(c2)CCCC3)o1`, the IC50 was 14.7 µM. As for `O=C(Nc1ccc(Oc2cccc3ccccc23)cc1)c1ccco1`, the IC50 was 8.83 µM. For `Oc1ccc(Oc2ccc(Oc3ccc(O)cc3)cc2)cc1`, the IC50 was 30.4 µM. The value for `Cn1c(=O)c(C(=O)Nc2ncccn2)c(O)c2ccccc21` was 4.78 µM; that for `COC(=O)c1ccc(NC(=O)c2nc(S(=O)(=O)Cc3cccc(C)c3)ncc2Cl)cc1` was 2.01 µM. With `Cc1ccccc1[C@@]1(C)ON(c2ccccc2C(F)(F)F)C1=O` the figure was 3.74 µM; with `Cc1nc2ccc(C(C(F)(F)F)(C(F)(F)F)C(F)(F)F)cc2[nH]1`, 19.9 µM; with `Brc1ccc(OCc2nnnn2-c2ccccc2)cc1`, 11 µM.

Take `CCCC(=O)NC(c1ccc(C(C)C)cc1)c1ccc2cccnc2c1O` (configuration not stated): the IC50 was 7.76 µM.

As for `O=C(Nc1ccc2nc(-c3ccc(Br)o3)[nH]c2c1)c1cccs1`, the IC50 is 51 µM. The value for `O=C(CSc1cccs1)Nc1ccc2ccccc2c1` was 24.4 µM. The value for `O=C(Nc1ccccc1)C1C(c2ccccc2)C1(Cl)Cl` (configuration not stated) was 20.6 µM; that for `CC(=O)Nc1cccc(-c2cc(-c3c(Cl)cccc3Cl)no2)c1` was 8.63 µM. The value for `CSc1nnc(C)c(/C=C/NOCc2ccc(Cl)cc2)n1` was 5.56 µM; that for `c1ccc(Nc2nc(-c3ccccc3)nc3ccccc23)cc1` was 6.7 µM; that for `CCOC(=O)c1ccc(NC(=O)CSc2nc(=O)n3cccc(C)c3n2)cc1` was 53.6 µM. For the molecule `N=c1c2c(-c3ccccc3)c(-c3ccccc3)n(Cc3ccco3)c2ncn1Cc1ccccc1`, the IC50 is 13.6 µM. With `CC1=CC(C)(C)N(C(=O)c2ccc(F)cc2)c2cc3c(cc21)OCO3` the figure was 3.84 µM; with `C[C@@]12C(=O)Nc3ccc(Cl)cc3C(=O)N1[C@H]1c3ccccc3OC[C@@H]1[C@@H]2c1ccccc1`, 3.46 µM.

On to `N#C/C(=C\c1ccc(Cl)cc1)C(=O)NC1CC1`, for which the IC50 was 9.67 µM. With `CC(C)Oc1cc(O)c2c(=O)c(-c3ccc(O)cc3)coc2c1`, the IC50 was 10.1 µM.

As for `COC(=O)c1ccc(C(=O)OC)c(NC(=O)CSc2cccc[n+]2[O-])c1`, the IC50 is 10.6 µM. With `Cc1ccc(NC(=O)c2nc(S(=O)(=O)Cc3ccccc3C)ncc2Cl)cc1C` the figure was 5.94 µM; with `Nc1ccc2nc(SCc3ccccc3F)sc2c1`, 20.6 µM. The value for `CO/C(N)=C(\C#N)N=Cc1ccccc1Cl` was 77.2 µM. With `C(=C\c1ccccc1)/C=N/Nc1nc2ccccc2[nH]1` the figure was 38.7 µM; with `Cc1occc1C(=O)N/N=C/C(Br)=C/c1ccccc1`, 11.5 µM; with `O=C(NC(=S)NC(=O)c1ccccc1F)c1ccccc1F`, 8.39 µM. Take `Cc1ccc2[nH]cc(C(=O)CCl)c2c1`: the concentration for half-maximal inhibition (IC50) was 26.1 µM. As for `COc1cc2c3c(c1)C(C)=CC(C)(C)N3C(=O)C2=O`, the half-inhibitory concentration (IC50) was 16 µM. With `O=C(NCc1cccnc1)/C(=C\c1ccc(-c2ccc(Br)cc2)o1)S(=O)(=O)c1ccccc1` the figure was 5.72 µM; with `COc1ccc(-c2cc(-c3ccccc3O)[nH]n2)cc1`, 12.4 µM. For `Cc1ccc2occ(C(=O)c3ccco3)c(=O)c2c1`, the IC50 is 9.21 µM. With `Cn1c(C=O)c(C#Cc2ccccc2)c2ccccc21` the figure was 5.53 µM; with `COc1ccc(NC(=O)Nc2nc3c(s2)CCCC3)cc1`, 14.5 µM; with `C/C=C/c1ccc(OCCOc2cc(C=O)ccc2OC)c(OC)c1`, 16.8 µM. With `c1ccc(-c2nc(NCc3cccs3)c3ccccc3n2)cc1` the figure was 14.3 µM. The value for `CCSc1ncc(/C=N/Nc2ccc(Cl)cc2)n1C` was 10.9 µM; that for `Cc1csc2nc(O)c(C(=O)NC3CCCCC3)c(=O)n12` was 9.27 µM. Turning to `O=Cc1cnc2ccccc2c1-c1ccccc1`, the IC50 was 9.53 µM. The value for `Cc1cc(C)nc(SCC(=O)c2cc3ccccc3oc2=O)n1` was 32.1 µM. The value for `Oc1ccc(Br)cc1/C=N/Nc1ccccn1` was 5.94 µM. With `O=Cc1cccnc1SCc1ccccc1` the figure was 12.1 µM. Turning to `O=C(Nc1ccc2nc(-c3ccccc3)[nH]c2c1)c1cccs1`, the IC50 was 3.08 µM. With `COc1cccc(NC(=O)c2ccccc2)c1` the figure was 3.42 µM. For the molecule `O=[N+]([O-])c1ccccc1S(=O)(=O)Nc1cccc2cccnc12`, the IC50 is 13.9 µM.

As to `N#C/C(N)=C(/C#N)N=Cc1cccc(Cl)c1`, the half-inhibitory concentration (IC50) is 14.2 µM. Take `O=C(N/N=C/c1ccc(Br)s1)c1cccs1`: the IC50 was 22.9 µM. The value for `COc1ccc(-c2ccc(NC(=O)c3ccco3)cc2)nn1` was 10.5 µM. As for `O=C(/C=C/c1ccccc1Cl)Nc1ccccc1`, the IC50 was 44.7 µM. For `Cc1ccc2nc(N3CCN(C=O)CC3)nc(-c3ccccc3)c2c1`, the IC50 is 9.88 µM. The value for `CCOC(=O)c1c(N)sc(C(=O)Nc2ccccc2)c1C` was 2.25 µM. `CC(=O)Nc1ncnc2c1c(-c1ccc(Cl)cc1)nn2C(C)(C)C`: the IC50 was 9.62 µM. The value for `Cc1ccc(S(=O)(=O)N[C@@H](Cc2ccccc2)C(=O)CCl)cc1` was 0.64 µM; that for `O=C(N/N=C/C(Br)=C/c1ccccc1)c1ccccc1F` was 15.5 µM.

Turning to `O=C(N/N=C/c1coc2ccc(Cl)cc2c1=O)c1cc(O)cc(O)c1`, the IC50 is 44.8 µM.

For the molecule `CC(C)CCN1C(=O)c2cccc3c(N)ccc(c23)C1=O`, the IC50 was 10.6 µM. With `CC1CCc2c(sc3nc(C(C)(C)C)nc(N4CCN(C(=O)CCl)CC4)c23)C1` (configuration not stated) the figure was 23.3 µM; with `N#C/C(=C\c1ccc(OCc2ccccc2)cc1)C(N)=O`, 27.9 µM; with `COC(=O)c1c(-c2ccc(S(C)(=O)=O)cc2)sc2ccc(OC)cc12`, 11.4 µM. With `Cc1ccc2nc(-c3ccc(N)cc3)sc2c1` the figure was 17.4 µM.

For `COC(=O)N/N=C/c1ccc(-c2cc(Cl)cc(Cl)c2)o1`, the IC50 is 18 µM. Take `COc1ccc(C(=O)c2sc(Nc3ccccc3F)nc2N)cc1`: the IC50 was 16.5 µM.

For the molecule `COCCNC(=O)/C(C#N)=C/c1ccc(OCc2ccccc2)cc1`, the IC50 is 16.6 µM. With `COc1cccc(CNn2c(-c3cccc(C)c3)nc3ccccc3c2=O)c1O` the figure was 13 µM. `CCOC(=O)c1cccc(OC(=O)CCNC(=O)c2ccc(Cl)cc2)c1`: the IC50 was 26.9 µM.

One may read the IC50 as the concentration needed to halve the response being measured.
